Reference: patent publication US20070099995A1, “Use of hydroxyoleic acid and related compounds as functional food additives” (priority 2003, published 2007)

Assays:
[1] = Body weight of normotensive (WKY) and hypertensive (SHR) rats; type: in vivo, rat; details: 600 mg/kg every 12 hours, 8 days
Protocol: In another series of experiments, the diet of normotensive rats (WKY) and hypertensive rats (SHR) was supplemented with hydroxyoleic acid (600 mg/kg, every 12 hours) and it was confirmed that the weight of the animals decreased by between 30 and 40 grams (15-20% of the body weight) in an 8-day diet period (FIG. 8).

[2] = Systolic arterial pressure in normotensive WKY rats; type: in vivo, rat; details: male WKY (normotensive) rats, 600 mg/kg every 12 hours for 7 days, FIG. 6
Protocol: (§1) 2-Hydroxyoleic acid induced significant reductions of blood pressure in rats (FIG. 4a). These reductions occurred rapidly (at 2 hours of treatment, 19±6 mmHg, P<0.01, n=6) and after a long period (1 week, 26±7 mmHg, P<0.001, n=6). In genetically hypertensive rats, SHR strain, ingestion of 2-hydroxyoleic acid (600 mg/kg every 12 hours) produced very marked reductions in blood pressure. These reductions, of some 70 mmHg, induced normalization of systolic pressure in hypertensive SHR rats.
(§2) In SHRs which were not given 2-hydroxyoleic acid (SHR empty squares), no reduction in arterial pressure was observed. […] The reduction induced by hydroxyoleic acid on arterial pressure meant that there was no significant difference between the values registered at the end of the diet period for the hypertensive and normotensive rats.

[3] = Hypotensive test: systolic arterial pressure in female Sprague-Dawley rats; type: in vivo, rat; details: for reduction of blood pressure: rats; for effect on systolic arterial pressure with respect to the control: short-term (2 to 4 hours) administration, female Sprague-Dawley rats, FIG. 5
Protocol: as §1

[4] = Systolic arterial pressure in genetically hypertensive rats, SHR strain; type: in vivo, rat
Protocol: as §1, §2

G-proteins = assay: Binding of [35S]GTPγS to membranes of NIH 3T3 cells transfected with the rat adrenoceptor α2A/D (activity of G-proteins); type: biochemical; details: membranes of NIH 3T3 cells transfected with rat adrenoceptor α2A/D; FIG. 2; compared with daunomycin
Excerpt: Hydroxyoleic acid and related compounds are capable of modulating the activity of G-proteins, measured by the binding of [^35S] GTPγS (FIG. 2). […] Abscissa: C=control; 2OHOA=2-hydroxyoleic; DNM=daunomycin. Ordinate: Binding of [^35S]GTPγS (% of control).

Blood pressure in humans = type: in vivo, human; details: 90 mg/kg per day for 8 days, FIG. 4b
Excerpt: The days prior to treatment are shown with negative values. *P<0.05, **P<0.01.

[5] = Blood pressure and heart rate after ingestion (species not stated); type: in vivo; details: chronic treatments lasting a week
Protocol: The hypotensive effect produced by ingestion of 2-hydroxyoleic acid and its analogs results in a reduction in blood pressure within 2 hours of ingestion, and this is maintained for days and weeks while ingestion of this compound is maintained. Aminoleic acid, for example, reduces blood pressure by 15 mmHg in chronic treatments lasting a week.

CCCCCCCC/C=C\CCCCCCC(O)C(=O)O (stereo not drawn) [2-hydroxyoleic acid, cis-2-hydroxy-9-octadecenoic acid]
reduction in body weight [1]: 15-20%
effect on arterial pressure [2]: neither the 2-hydroxyoleic acid (black circles) nor the vehicle (empty circles) produced statistically significant changes
reduction of blood pressure ([3]; 1 week (chronic, 90 mg/kg per day for 7 days, FIG. 4a), n=6, P<0.001): 26±7 mmHg
reduction of blood pressure ([3]; at 2 hours of treatment (acute, 30 mg/kg, FIG. 4a), n=6, P<0.01): 19±6 mmHg
effect on systolic arterial pressure with respect to the control [3]: significant decreases
reduction in blood pressure (systolic) ([4]; SHR rats, 600 mg/kg every 12 hours): ~70 mmHg
effect on systolic arterial pressure ([4]; male SHR rats, 600 mg/kg every 12 hours for 7 days, FIG. 6): significant, large reductions
Binding of [35S]GTPγS (function of the G-proteins) (G-proteins): decrease in function of the G-proteins even greater than daunomycin
effect on blood pressure (Blood pressure in humans): significant, large decreases

CCCCCCCC/C=C\CCCCCCC(C)C(=O)O (stereo not drawn) [2-methyl oleic acid]
effect on systolic arterial pressure with respect to the control [3]: significant decreases

CCCCCC/C=C\CCCCCCCCCC(=O)O [cis-vaccenic acid]
effect on systolic arterial pressure with respect to the control [3]: significant decreases

CCCCCCCC/C=C\CCCCCCCCCCCCCC(=O)O [nervonic acid]
effect on systolic arterial pressure with respect to the control [3]: significant decreases

CCCCCCCC/C=C\CCCCCCCC(=O)O [oleic acid]
effect on systolic arterial pressure with respect to the control [3]: significant decreases

CCCCCC/C=C\CCCCCCCC(=O)O [palmitoleic acid]
effect on systolic arterial pressure with respect to the control [3]: significant decreases

Aminoleic acid
reduction of blood pressure [5]: 15 mmHg
